The source of these data is patent US11548952B2, “Bispecific antibody against CD3 and CD20 in combination therapy for treating diffuse large B-cell lymphoma” (GENMAB A/S, priority 2020, dated 2023).

The test system of experiment [1] is R/R DLBCL eligible for ASCT. The experiment is classed as in vivo, human. The conditions noted are these: in combination with R-DHAX/C, preliminary. Here is the method: The trial is conducted in 2 parts: dose escalation (Part 1) and expansion (Part 2). Subjects participate in only one part. Both parts consist of a screening period, a treatment period, a safety follow-up period, and a survival follow-up period.
Epcoritamab is initially be administered in combination with R-DHAX/C in a 3-subject cohort. DLTs are evaluated during the first 28 days.
Dexamethasone (40 mg) is administered intravenously or orally on days 1-4 of a cycle once every 3 weeks (Q3W) for cycles 1-3. Cytarabine (2 g/m^2) is administered intravenously on day 1 (usually over 3 hours), repeated after 12 hours (may result in a second dose on day 2 depending on timing of first dose), once every 3 weeks (Q3W) for cycles 1-3. […] Carboplatin (for DHAC) (AUC=5 mg/ml/min; Calvert's formula) is administered intravenously on day 1 once every 3 weeks (Q3W) for cycles 1-3.
CRS is graded according to the ASTCT grading for CRS (Tables 6 and 7), and for treatment of CRS, subjects should receive supportive care. […]

The subject of experiment [2] is CD20-expressing Raji-luc tumor cells. The conditions noted are these: NOD-SCID mice injected with Raji-luc tumor cells and PBMCs; even in the presence of an excess of IgG1-RTX-FEAR; cited from earlier work.
The target in the next experiment is T1, CD20 (Homo sapiens, UniProt P11836).
T1 sequence (P11836 1-297): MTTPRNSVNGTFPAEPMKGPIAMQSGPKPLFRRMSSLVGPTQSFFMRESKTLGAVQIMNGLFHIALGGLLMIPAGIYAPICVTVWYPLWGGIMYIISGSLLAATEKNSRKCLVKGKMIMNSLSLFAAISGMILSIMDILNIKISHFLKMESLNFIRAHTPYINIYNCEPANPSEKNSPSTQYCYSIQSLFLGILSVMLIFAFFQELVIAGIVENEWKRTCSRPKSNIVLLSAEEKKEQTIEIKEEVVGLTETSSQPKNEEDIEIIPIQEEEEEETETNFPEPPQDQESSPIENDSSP
The conditions noted are these: bind to a different epitope; cited from earlier work.

Like-named read-outs stand apart in the source and are kept apart here.

For “Epcoritamab: IgG1 bispecific CD3×CD20 antibody; heavy and light chain pairs SEQ ID NOs: 24 and 25, and 26 and 27; CAS 2134641-34-0”, the responders observed in experiment [1] (escalation phase, as of Sep. 8, 2021, 22 patients dosed in total) amounted to 4; in experiment [1] (expansion phase 48 mg, as of Sep. 8, 2021, response data not completely entered), 0. In addition, the “tumor growth in the xenograft model” value in experiment [2] is “effectively reduce tumor growth”.
“IgG1-CD20: anti-CD20 antibody of which the CD20 arm of epcoritamab is derived”: the “competition for CD20 binding” value in the experiment with CD20 is “compete for CD20 binding”.
